Like-named read-outs stand apart in the source and are kept apart here.
Columns and labels:
[1] = test system: Candida albicans MTU 12021; test: Agar dilution MIC, single and combined use; type: cell-based; conditions: for MIC: Candida albicans, read-out: Minimum Inhibitory Concentration (MIC); for synergistic effects of combined use with Compound 1: agent combined with Compound 1, Table 1; for Minimum Inhibitory Concentration (MIC) of the agent combined with Compound 1: combined with Compound 1 at 100 μg/ml; for Minimum Inhibitory Concentration (MIC) of miconazole in combination with the arylmethylamine compound: MIC is that of miconazole, compound at a concentration of 100 mg/ml (so in the source)
Procedure: (1) The effects of the combined use of Compound 1 with various imidazole antifungal agents against Candida albicans MTU 12021 strain were examined as follows. […] Then, distilled water containing 0.1% by weight of Tween 80 was added thereto to obtain drug solutions having a concentration of from 1 to 1,000 μg/ml.
(§1) 1 ml of each drug solution diluted twice was introduced into a sterilized Petri dish, and 8 ml of Sabouraud agar medium was added to prepare a agar plate. Thus, a series of agar plates for the combinations having various concentrations were prepared.
(§2) Candida albicans MTU 12021 strain cultured on a Sabouraud agar medium for 24 hours, was suspended in a saline, and a cells suspension having a concentration of 2×10^6 spores/ml was prepared by counting the number of spores by a hemacytometer. Then, 50 μl of the cells suspension was inoculated to the above agar plates by means of a microplanter (manufactured by Sakuma Seisakusho). The inoculated agar plates were cultured at 37° C. for 48 hours, whereupon the presence or absence of the growth of the strain was examined.
(§3) Culture medium: Sabouraud agar medium
(§4) Culturing condition: 37° C. for 48 hours
(§5) Strain used: Candida albicans MTU 12021

[2] = test system: Candida albicans MTU 12021; test: Disk method (growth inhibition ring); type: cell-based; conditions: for effects of combined use with miconazole or ketoconazole: same disk method as Example 1(3)
Procedure: (3) The effects of the combined use of Compound 1 with miconazole or ketoconazole were examined by a disk method.
Candida albicans MTU 12021 stain was mixed with a Sabouraud agar medium to have a concentration of 5×10^4 spores/ml, and 10 ml thereof was poured into a sterilized Petri dish to obtain an inoculated agar plate.
50 mg of each of Compound 1, miconazole and ketoconazole was impregnated to a disk (Toyo Filter paper of 8 mm in diameter), and the disk was placed on the inoculated agar plate, followed by culturing at 37° C. for 96 hours, whereupon the synergistic effects were evaluated based on the growth inhibition ring thereby appeared.

[3] = test system: Candida albicans MTU 12021; test: Checker board method, combined use of Compound 1 with miconazole or ketoconazole; type: cell-based; conditions: for synergistic effects of combined use with Compound 1 (checker board): agent combined with Compound 1, Tables 2 and 3; for Growth: Compound 1 0; as to growth: key: +: Growth observed; -: No growth observed
Procedure: as §1, §2, §3, §4, §5

ICR male mice = test: Acute toxicity, oral, mice; type: in vivo; conditions: up to 5,000 mg/kg, ICR male mice of 5 weeks old
Source text: To examine the acute toxicity of the arylmethylamine antifungal agents used in the composition of the present invention, Compounds 1 and 2 were selected, and they were, respectively, suspended in 0.5% methyl cellulose and orally administered to ICR male mice of 5 weeks old (body weight: 26-28 g) at a dose corresponding to the body weight.

[4] = MTU12021, single use, Sabouraud agar, 37° C., 48 hours
[5] = Sabouraud agar, 37° C., 48 hours

In the case of `Clc1ccc(COC(Cn2ccnc2)c2ccc(Cl)cc2Cl)cc1` (centres unmarked) [econazole], the MIC [1, 4] is reported as 25 µg/mL, the “synergistic effects of combined use with Compound 1” value [1] is reported as “remarkable synergistic effects” and the “Minimum Inhibitory Concentration (MIC) of the agent combined with Compound 1” value [1, 5] is reported as 1.56 µg/mL.

`CN(C/C=C/C#CC(C)(C)C)Cc1cccc2ccccc12` [Compound 7, (E)-N-[6,6-dimethyl-2-hepten-4-ynyl)-N-methyl-1-naphthalenemethylamine] was tested, and the “effects of combined use with miconazole or ketoconazole” value [2] was “remarkable synergistic effects”, the MIC [1, 4] was greater than 100 µg/mL and the “Minimum Inhibitory Concentration (MIC) of miconazole in combination with the arylmethylamine compound” value [1] was 0.78 µg/mL.

With `CC(=O)N1CCN(c2ccc(OCC3COC(Cn4ccnc4)(c4ccc(Cl)cc4Cl)O3)cc2)CC1` (centres unmarked) [ketoconazole, reference compound] the “synergistic effects of combined use with Compound 1 (checker board)” value [3] was “Remarkable syntergistic effects”, the Growth ([3]; ketoconazole 0.1 μg/ml) was “+” and the Growth ([3]; ketoconazole 0.2 μg/ml) was “+”. For the same compound, the Growth ([3]; ketoconazole 0.39 μg/ml) was “+”, the Growth ([3]; ketoconazole 0.78 μg/ml) was “+” and the Growth ([3]; ketoconazole 1.56 μg/ml) was “+”. For the same compound, the Growth ([3]; ketoconazole 3.13 μg/ml) was “+”, the Growth ([3]; ketoconazole 12.5 μg/ml) was “+” and the Growth ([3]; ketoconazole 25 μg/ml) was “-”. The Growth ([3]; ketoconazole 50 μg/ml) was “-” and the Growth ([3]; ketoconazole 100 μg/ml) was “-”.

`CN(Cc1ccc(C(C)(C)C)cc1)Cc1ccc(F)c2ccccc12` [Compound 3, N-4-tert-butylbenzyl-N-methyl-4-fluoro-1-naphthalenemethylamine] was tested, and the MIC [1, 4] was greater than 100 µg/mL and the “Minimum Inhibitory Concentration (MIC) of miconazole in combination with the arylmethylamine compound” value [1] was 6.25 µg/mL.

`Clc1ccc(C(Cn2ccnc2)OCc2c(Cl)cccc2Cl)c(Cl)c1` (centres unmarked) [isoconazole] was tested, and the MIC [1, 4] was 25 µg/mL, the “synergistic effects of combined use with Compound 1” value [1] was “remarkable synergistic effects” and the “Minimum Inhibitory Concentration (MIC) of the agent combined with Compound 1” value [1, 5] was 1.56 µg/mL.

In the case of `CN(C/C=C/c1ccccc1)Cc1cccc2ccccc12` [Compound 6, (E)-N-cinnamyl-N-methyl-1-naphthalenemethylamine], the “effects of combined use with miconazole or ketoconazole” value [2] is reported as “remarkable synergistic effects”, the MIC [1, 4] is reported as greater than 100 µg/mL and the “Minimum Inhibitory Concentration (MIC) of miconazole in combination with the arylmethylamine compound” value [1] is reported as 1.56 µg/mL.

For `Clc1cc(Cl)c(OCC#CI)cc1Cl` [Haloprozin], the MIC [1, 4] was greater than 100 µg/mL and the “Minimum Inhibitory Concentration (MIC) of the agent combined with Compound 1” value [1, 5] was greater than 100 µg/mL.

For `CCC(C)(C)c1ccc(CN(C)Cc2cccc3ccccc23)cc1` [Compound 2, N-methyl-N-4-tert-pentylbenzyl-1-naphthalenemethylamine], the death (ICR male mice) was “no instance of death”, the MIC [1, 4] was greater than 100 µg/mL and the “Minimum Inhibitory Concentration (MIC) of miconazole in combination with the arylmethylamine compound” value [1] was 3.13 µg/mL.

For `Cc1cc(O)c2c(c1)O[C@@]1(C)CC[C@H]3C(C)(C)CCC[C@]34CO[C@@H]2[C@H]41` [Siccanine], the MIC [1, 4] was 25 µg/mL and the “Minimum Inhibitory Concentration (MIC) of the agent combined with Compound 1” value [1, 5] was 25 µg/mL.

In the case of `Clc1ccc(CO/N=C(\Cn2ccnc2)c2ccc(Cl)cc2Cl)c(Cl)c1` [oxiconazole], the “synergistic effects of combined use with Compound 1” value [1] is reported as “remarkable synergistic effects”.

With `C[C@@H]1[C@H](O)[C@@H](C)/C=C/C=C/C=C/C=C/C=C/C=C/C=C/[C@H](O[C@@H]2O[C@H](C)[C@@H](O)[C@H](N)[C@@H]2O)C[C@@H]2O[C@](O)(C[C@@H](O)C[C@@H](O)[C@H](O)CC[C@@H](O)C[C@@H](O)CC(=O)O[C@H]1C)C[C@H](O)[C@H]2C(=O)O` [Amphotericin B] the MIC [1, 4] was 3.13 µg/mL and the “Minimum Inhibitory Concentration (MIC) of the agent combined with Compound 1” value [1, 5] was 3.13 µg/mL.

In the case of `O=C(CCCCCCCCC#CI)Oc1ccccc1` [KP-4249], the MIC [1, 4] is reported as 100 µg/mL and the “Minimum Inhibitory Concentration (MIC) of the agent combined with Compound 1” value [1, 5] is reported as 100 µg/mL.

`O=[N+]([O-])c1c(Cl)cccc1-c1c[nH]cc1Cl` [Pyrrolnitrin] was tested, and the MIC [1, 4] was 50 µg/mL and the “Minimum Inhibitory Concentration (MIC) of the agent combined with Compound 1” value [1, 5] was 50 µg/mL.

In the case of `CN(Cc1ccc(C(C)(C)C)s1)Cc1cccc2ccccc12` [Compound 5, N-methyl-N-(1-naphthalenemethyl)-5-tert-butyl-2-thiophenemethylamine], the MIC [1, 4] is reported as greater than 100 µg/mL and the “Minimum Inhibitory Concentration (MIC) of miconazole in combination with the arylmethylamine compound” value [1] is reported as 3.13 µg/mL.

In the case of `Clc1ccccc1C(c1ccccc1)(c1ccccc1)n1ccnc1` [clotrimazole], the MIC ([1]; MTU12021, 48 h) is reported as 12.5 µg/mL, the “synergistic effects of combined use with Compound 1” value [1] is reported as “remarkable synergistic effects” and the “Minimum Inhibitory Concentration (MIC) of the agent combined with Compound 1” value [1, 5] is reported as 3.13 µg/mL.

For `Clc1ccc(COC(Cn2ccnc2)c2ccc(Cl)cc2Cl)c(Cl)c1` (centres unmarked) [miconazole, reference compound], the “growth inhibition ring, disk alone” value ([2]; 50 mg per disk (so in the source), 37° C., 96 hours, FIG. 2) was “a complete inhibitory ring with a small diameter and an incomplete inhibitory ring with a large diameter”, the “synergistic effects of combined use with Compound 1 (checker board)” value [3] was “Remarkable syntergistic effects” and the Growth ([3]; miconazole 0.39 μg/ml) was “+”. For the same compound, the Growth ([3]; miconazole 0.78 μg/ml) was “+”, the Growth ([3]; miconazole 1.56 μg/ml) was “+” and the Growth ([3]; miconazole 3.13 μg/ml) was “+”. The Growth ([3]; miconazole 12.5 μg/ml) was “+”, the Growth ([3]; miconazole 25 μg/ml) was “+” and the Growth ([3]; miconazole 50 μg/ml) was “-”. The Growth ([3]; miconazole 100 μg/ml) was “-”, the MIC ([1]; MTU12021, 48 h) was 25 µg/mL and the “synergistic effects of combined use with Compound 1” value [1] was “remarkable synergistic effects”. For the same compound, the “Minimum Inhibitory Concentration (MIC) of the agent combined with Compound 1” value [1, 5] was 1.56 µg/mL.

With `CN(Cc1ccc(C(C)(C)C)cc1)Cc1csc2ccccc12` [Compound 4, N-4-tert-butylbenzyl-N-methyl-3-benzo[b]thiophenemethylamine] the MIC [1, 4] was greater than 100 µg/mL and the “Minimum Inhibitory Concentration (MIC) of miconazole in combination with the arylmethylamine compound” value [1] was 1.56 µg/mL.
